Experimental data: patent US6979686B1, “Substituted pyrazoles as p38 kinase inhibitors” (Pharmacia Corporation, priority 2001, dated 2005)

Each compound was assayed against T1, human p38 kinase alpha (Homo sapiens, UniProt Q16539) (assay: p38 kinase in vitro assay, phosphorylation of biotinylated PHAS-I with 32P-ATP). Conditions: @ 1.0 uM.
T1 construct: GST (N, cleaved yes); made in house; host or cells: E. coli DH10B
Type: biochemical
Procedure: The coding region of the human p38a cDNA was obtained by PCR-amplification from RNA isolated from the human monocyte cell line THP.1. […] Random primer, dNTP's and Superscript™ reagents were all purchased from Life-Technologies, Gaithersburg, Mass. The reaction was incubated at 42° C. for 1 hour. Amplification of p38 cDNA was performed by aliquoting 5 μl of the reverse transcriptase reaction into a 100 μl PCR reaction containing the following: 80 μl dH2O, 2 μl 50 mM DNTP's, 1 μl each of forward and reverse primers (50 pmol/μl), 10 μl of 10×buffer and 1 μl Expand™ polymerase (Boehringer Mannheim). The PCR primers incorporated BamHI sites onto the 5′ and 3′ end of the amplified fragment, and were purchased from Genosys. […] The PCR amplification was carried out in a DNA Thermal Cycler (Perkin Elmer) by repeating 30 cycles of 94° C. for 1 minute, 60° C. for 1 minute and 68° C. for 2 minutes. After amplification, excess primers and unincorporated dNTP's were removed from the amplified fragment with a Wizard™ PCR prep (Promega) and digested with BamHI (New England Biolabs). The BamHI digested fragment was ligated into BamHI digested PGEX 2T plasmid DNA (PharmaciaBiotech) using T-4 DNA ligase (New England Biolabs) as described by T. Maniatis, Molecular Cloning: A Laboratory Manual, 2nd ed. […] The ligation reaction was transformed into chemically competent E. coli DH10B cells purchased from Life-Technologies following the manufacturer's instructions. Plasmid DNA was isolated from the resulting bacterial colonies using a Promega Wizard™ miniprep kit.
Expression of Human p38a:
Overnight cultures were grown in-Luria Broth (LB) containing […] ampicillin. The next day, 500 ml of fresh LB was inoculated with 10 ml of overnight culture, and grown in a 2 liter flask at 37° C. with constant shaking until the culture reached an absorbance of 0.8 at 600 nm. Expression of the fusion protein was induced by addition of isopropyl b-D-thiogalactosidse (IPTG) to a final concentration of 0.05 mM. The cultures were shaken for three hours at room temperature, and the cells were harvested by centrifugation. The cell pellets were stored frozen until protein purification.
Purification of p38 Kinase-α:
All chemicals were from Sigma Chemical Co. unless noted. Twenty grams of E. coli cell pellet collected from five 1 L shake flask fermentations was resuspended in a volume of PBS (140 mM NaCl, 2.7 mM KCl, 10 mM Na2HPO4, 1.8 mM KH2PO4, pH 7.3) up to 200 ml. The cell suspension was adjusted to 5 mM DTT with 2 M DTT and then split equally into five 50 ml Falcon conical tubes. The cells were sonnicated (Ultrasonics model W375) with a 1 cm probe for 3×1 minutes (pulsed) on ice. Lysed cell material was removed by centrifugation (12,000×g, 15 minutes) and the clarified supernatant applied to glutathione-sepharose resin (Pharmacia).
Glutathione-sepharose Affinity Chromatography:
The resin was collected by centrifugation (600×g, 5 min) and washed with 2×150 ml PBS/1% Triton X-100, followed by 4×40 ml PBS. To cleave the p38 kinase from the GST-p38 fusion protein, the glutathione-sepharose resin was resuspended in 6 ml PBS containing 250 units thrombin protease (Pharmacia, specific activity>7500 units/mg) and mixed gently for 4 hours at room temperature. The glutathione-sepharose resin was removed by centrifugation (600×g, 5 min) and washed 2×6 ml with PBS. The PBS wash fractions and digest supernatant containing p38 kinase protein were pooled and adjusted to 0.3 mM PMSF.
Mono O Anion Exchange Chromatography:
The thrombin-cleaved p38 kinase was further purified by FPLC-anion exchange chromatography.

T1 sequence (Q16539 whole entry): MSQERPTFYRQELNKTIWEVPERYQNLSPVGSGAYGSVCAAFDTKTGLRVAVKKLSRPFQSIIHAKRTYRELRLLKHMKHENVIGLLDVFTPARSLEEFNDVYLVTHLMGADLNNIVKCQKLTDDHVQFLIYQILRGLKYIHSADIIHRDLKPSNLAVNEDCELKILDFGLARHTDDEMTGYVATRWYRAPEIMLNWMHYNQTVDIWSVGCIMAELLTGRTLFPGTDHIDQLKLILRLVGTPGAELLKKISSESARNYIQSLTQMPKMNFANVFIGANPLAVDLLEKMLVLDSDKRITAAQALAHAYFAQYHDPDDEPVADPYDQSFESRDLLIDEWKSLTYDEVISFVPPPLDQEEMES

P38 alpha kinase % inhib @ conc. (uM) | P38 alpha kinase % inhib @ conc. | SMILES
68.0% @ | – | O=C(Cc1cccs1)NCCc1[nH]nc(-c2ccc(F)cc2)c1-c1ccncc1 [Example B-1051]
– | 95.0% @ | CCS(=O)(=O)NCCCc1[nH]nc(-c2ccc(F)cc2)c1-c1ccncc1 [Example B-1200]
77.0% @ | – | O=C(NCCCc1[nH]nc(-c2ccc(F)cc2)c1-c1ccncc1)c1ccncc1 [Example B-1183]
– | 88.0% @ | Cc1cccc(C)c1NC(=O)NCCCc1[nH]nc(-c2ccc(F)cc2)c1-c1ccncc1 [Example B-1216]

Same assay, conditions: @ 1.0 uM; read-out: P38 alpha kinase % inhib @ conc.

inhibition at 1 µM | SMILES
65% | CCCCOc1ccc(C(=O)NCc2[nH]nc(-c3ccc(F)cc3)c2-c2ccncc2)cc1 [Example B-0041]

Same assay, conditions: @ 10.0 uM

P38 alpha kinase % inhib @ conc. | P38 alpha kinase IC50, uM or % inhib @ conc. (uM): % inhib | SMILES
76.0% @ | – | Cc1c(-c2ccncc2)c(-c2ccc(F)cc2)nn1CC(=O)NC1CCCc2ccccc21 (stereo not shown) [Example B-2326]
46.0% @ | – | CCN(Cc1c(F)cccc1Cl)C(=O)Cn1nc(-c2ccc(F)cc2)c(-c2ccncc2)c1C [Example B-2367]
– | 88.0% @ | Cc1c(-c2ccncc2)c(-c2ccc(F)cc2)nn1CC(=O)Nc1cccc(Br)c1 [Example B-2426]
84.0% @ | – | Cc1c(-c2ccncc2)c(-c2ccc(F)cc2)nn1CC(=O)NC1CCN(CCc2c[nH]c3ccccc23)CC1 [Example B-2355]
47.0% @ | – | CCN1CC(NC(=O)Cn2nc(-c3ccc(F)cc3)c(-c3ccncc3)c2C)CN1CC [Example B-2357]
45.0% @ | – | Cc1c(-c2ccncc2)c(-c2ccc(F)cc2)nn1CC(=O)NC1CCCCC1C1CCCCC1 (stereo not shown) [Example B-2346]
– | 70.0% @ | CCc1cccc(CC)c1NC(=O)Cn1nc(-c2ccc(F)cc2)c(-c2ccncc2)c1C [Example B-2420]

Same assay, conditions: Table 8; 1% DMSO; read-out: p38α Kinase Assay IC50

IC50 | SMILES
6060 nM | COC(=O)N1CCN(c2[nH]nc(-c3ccc(Cl)cc3)c2-c2ccncc2)CC1 [Example A-319, methyl 4-[5-(4-chlorophenyl)-4-(4-pyridinyl)-1H-pyrazol-3-yl]-1-piperazinecarboxylate, monohydrate]

Same assay, conditions: activated human p38 kinase alpha, PHAS-I substrate, 50 μM unlabeled ATP; read-out: p38 kinase IC50

IC50 | SMILES
8000 nM | Cc1cc(C)cc(-c2n[nH]c(C)c2-c2ccncc2)c1 [Example A-34]

Same assay, conditions: in vitro P38-alpha kinase inhibition; read-out: P38 alpha kinase IC50

IC50 | SMILES
7900 nM | O=C(NC(Cc1ccccc1)c1[nH]nc(-c2ccc(F)cc2)c1-c1ccncc1)c1cnc2ccccc2n1 (stereo not shown) [Example B-0828]
1000 nM | O=C(Cc1cccs1)NC(Cc1ccccc1)c1[nH]nc(-c2ccc(F)cc2)c1-c1ccncc1 (stereo not shown) [Example B-0790]
140 nM | CC(NS(=O)(=O)c1ccc(F)cc1F)c1[nH]nc(-c2ccc(F)cc2)c1-c1ccncc1 (stereo not shown) [Example B-0567]
1440 nM | CC(NC(=O)C1CCCC1)c1[nH]nc(-c2ccc(F)cc2)c1-c1ccncc1 (stereo not shown) [Example B-0553]
4300 nM | O=C(NC(Cc1ccccc1)c1[nH]nc(-c2ccc(F)cc2)c1-c1ccncc1)c1ccc(I)cc1 (stereo not shown) [Example B-0839]
< 100 nM | CC(NS(=O)(=O)c1ccc(Br)cc1)c1[nH]nc(-c2ccc(F)cc2)c1-c1ccncc1 (stereo not shown) [Example B-0609]
380 nM | CCCCS(=O)(=O)NC(C)c1[nH]nc(-c2ccc(F)cc2)c1-c1ccncc1 (stereo not shown) [Example B-0571]
85 nM | O=C(NCCc1[nH]nc(-c2ccc(F)cc2)c1-c1ccncc1)c1ccccc1Br [Example B-1154]
220 nM | O=S(=O)(NCCc1[nH]nc(-c2ccc(F)cc2)c1-c1ccncc1)c1cccc2ccccc12 [Example B-1069]
2790 nM | CC(=O)Nc1nc(C)c(S(=O)(=O)NC(C)c2[nH]nc(-c3ccc(F)cc3)c2-c2ccncc2)s1 (stereo not shown) [Example B-0607]
540 nM | CC(NC(=O)c1c(F)cc(F)cc1F)c1[nH]nc(-c2ccc(F)cc2)c1-c1ccncc1 (stereo not shown) [Example B-0684]
< 100 nM | Cc1cccc(Cl)c1S(=O)(=O)N[C@H](C)c1[nH]nc(-c2ccc(F)cc2)c1-c1ccncc1 [Example B-0467]
470 nM | O=C(NCCc1[nH]nc(-c2ccc(F)cc2)c1-c1ccncc1)c1cccc(F)c1F [Example B-1146]
24 nM | CN(C)S(=O)(=O)NCCc1[nH]nc(-c2ccc(F)cc2)c1-c1ccncc1 [Example B-1115]
1610 nM | COc1ccc(C)cc1S(=O)(=O)NC(C)c1[nH]nc(-c2ccc(F)cc2)c1-c1ccncc1 (stereo not shown) [Example B-0647]
2900 nM | O=S(=O)(NC(Cc1ccccc1)c1[nH]nc(-c2ccc(F)cc2)c1-c1ccncc1)c1ccc(F)cc1F (stereo not shown) [Example B-0712]
270 nM | O=S(=O)(NCCc1[nH]nc(-c2ccc(F)cc2)c1-c1ccncc1)c1cc(Cl)cc(Cl)c1 [Example B-1092]
3400 nM | COc1ccc(S(=O)(=O)NC(Cc2ccccc2)c2[nH]nc(-c3ccc(F)cc3)c2-c2ccncc2)cc1 (stereo not shown) [Example B-0719]
330 nM | O=S(=O)(NCCc1[nH]nc(-c2ccc(F)cc2)c1-c1ccncc1)c1cccc2cnccc12 [Example B-1118]
1500 nM | O=S(=O)(NC(Cc1ccccc1)c1[nH]nc(-c2ccc(F)cc2)c1-c1ccncc1)C(F)(F)F (stereo not shown) [Example B-0758]
15600 nM | Cc1ccc(S(=O)(=O)NC(Cc2ccccc2)C(=O)NC(Cc2ccccc2)c2[nH]nc(-c3ccc(F)cc3)c2-c2ccncc2)cc1 (stereo not shown) [Example B-0827]
410 nM | O=S(=O)(NCCc1[nH]nc(-c2ccc(F)cc2)c1-c1ccncc1)c1ccc(S(=O)(=O)c2ccccc2)s1 [Example B-1116]
220 nM | CC1(C)C2CCC1(S(=O)(=O)NCCc1[nH]nc(-c3ccc(F)cc3)c1-c1ccncc1)C(=O)C2 (stereo not shown) [Example B-1100]
1550 nM | CC(=O)OC(C)C(=O)NC(C)c1[nH]nc(-c2ccc(F)cc2)c1-c1ccncc1 (stereo not shown) [Example B-0542]

Same assay, conditions: in vitro P38-alpha kinase; read-out: P38 alpha kinase IC50

IC50 | SMILES
< 100 nM | O=C(c1ccc(F)cc1C(F)(F)F)N1CCC(c2[nH]nc(-c3ccc(F)cc3)c2-c2ccncc2)CC1 [Example B-1410]
55 nM | CN1CCCC1CCNC(=O)NCCCc1[nH]nc(-c2ccc(F)cc2)c1-c1ccncc1 (stereo not shown) [Example B-1315]
470 nM | Cc1ccccc1C(=O)NCCCc1[nH]nc(-c2ccc(F)cc2)c1-c1ccncc1 [Example B-1321]
220 nM | O=S(=O)(NCCCc1[nH]nc(-c2ccc(F)cc2)c1-c1ccncc1)c1ccc(Br)cc1 [Example B-1237]
950 nM | O=S(=O)(c1ccccc1Br)N1CCC(c2[nH]nc(-c3ccc(F)cc3)c2-c2ccncc2)CC1 [Example B-1458]
50 nM | COCCNC(=O)NCCCc1[nH]nc(-c2ccc(F)cc2)c1-c1ccncc1 [Example B-1311]
3590 nM | COc1cc(CNC(=O)Cn2nc(-c3ccc(F)cc3)c(-c3ccncc3)c2C)cc(OC)c1OC [Example B-2297]
260 nM | Cc1c(-c2ccncc2)c(-c2ccc(F)cc2)nn1CC(=O)NCc1ccccc1Cl [Example B-2274]
70 nM | O=S(=O)(NCCCc1[nH]nc(-c2ccc(F)cc2)c1-c1ccncc1)c1c(Cl)cccc1Cl [Example B-1258]
1.2 nM | O=C(c1ccco1)N1CCC(c2[nH]nc(-c3ccc(F)cc3)c2-c2ccncc2)CC1 [Example B-1383]
9 nM | NS(=O)(=O)c1ccc(CCNC(=O)NCCCc2[nH]nc(-c3ccc(F)cc3)c2-c2ccncc2)cc1 [Example B-1307]
460 nM | O=S(=O)(NCCCc1[nH]nc(-c2ccc(F)cc2)c1-c1ccncc1)c1cc(Cl)cc(Cl)c1 [Example B-1269]
910 nM | Cc1c(-c2ccncc2)c(-c2ccc(F)cc2)nn1CC(=O)NCc1ccco1 [Example B-2282]
70 nM | O=C(NCCCc1[nH]nc(-c2ccc(F)cc2)c1-c1ccncc1)c1ccccc1Br [Example B-1355]
